ChEMBL document CHEMBL1201862, “PubChem BioAssay data set” (2004)
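Briefly, cells in 96-well plates were exposed to five compound concentrations for 48 h, and endpoints were estimated by linear interpolation. At the GI50, growth is halved.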 The source made the active and inactive calls. Rule as the data show it: active = GI50 up to about 1.1 µM and inactive = higher.

Key:
Assay in all cases: growth of human tumour cells (NCI), 48 h
CAKI-1 = test system: CAKI-1
786-0 = test system: 786-0
SF-268 = test system: SF-268
CCRF-CEM = test system: CCRF-CEM
ACHN = test system: ACHN
A498 = test system: A498
SK-OV-3 = test system: SK-OV-3
A549 = test system: A549
UACC-62 = test system: UACC-62
UACC-257 = test system: UACC-257
TK-10 = test system: TK-10
UO-31 = test system: UO-31
Malme-3M = test system: Malme-3M
HL-60 = test system: HL-60
OVCAR-3 = test system: OVCAR-3

Measured: GI50

O=c1ccn([C@@H]2C[C@H](CO)C[S+]([O-])C2)c(=O)[nH]1 (stereo partly specified)
inactive: CAKI-1 > 100 µM | 786-0 > 100 µM | SF-268 > 100 µM | CCRF-CEM > 100 µM | ACHN > 100 µM | A498 > 100 µM | SK-OV-3 > 100 µM | A549 > 100 µM | UACC-62 > 100 µM | UACC-257 > 100 µM | TK-10 > 100 µM | UO-31 > 100 µM | Malme-3M > 100 µM | HL-60 > 100 µM | OVCAR-3 > 100 µM

N#C/C(=C\c1ccc(CP(=O)(O)O)cc1)C(N)=O
inactive: CAKI-1 > 100 µM | 786-0 > 100 µM | SF-268 > 100 µM | CCRF-CEM > 100 µM | ACHN > 100 µM | A498 > 100 µM | SK-OV-3 > 100 µM | A549 > 100 µM | UACC-62 > 100 µM | UACC-257 > 100 µM | TK-10 > 100 µM | UO-31 > 100 µM | Malme-3M > 100 µM | HL-60 > 100 µM | OVCAR-3 > 100 µM

NC(=O)CC(N/C=C1/N=C(c2ccccc2)OC1=O)C(=O)O (stereo unspecified)
inactive: CAKI-1 > 100 µM | 786-0 > 100 µM | SF-268 > 100 µM | CCRF-CEM > 100 µM | ACHN > 100 µM | A498 > 100 µM | SK-OV-3 > 100 µM | A549 > 100 µM | UACC-62 > 100 µM | UACC-257 > 100 µM | TK-10 > 100 µM | UO-31 > 100 µM | Malme-3M > 100 µM | HL-60 > 100 µM | OVCAR-3 > 100 µM

CN(CCCCN)c1ccc2c(=O)[nH][nH]c(=O)c2c1
inactive: CAKI-1 > 100 µM | 786-0 > 100 µM | SF-268 13 µM | CCRF-CEM > 100 µM | ACHN > 100 µM | A498 > 100 µM | SK-OV-3 > 100 µM | A549 > 100 µM | UACC-62 > 41.8 µM | UACC-257 > 100 µM | TK-10 > 100 µM | UO-31 > 100 µM | Malme-3M > 100 µM | HL-60 > 100 µM | OVCAR-3 > 100 µM

Nc1ccccc1Nc1ccccc1C(=O)[O-].Nc1ccccc1Nc1ccccc1C(=O)[O-].[Zn+2]
inactive: CAKI-1 > 100 µM | 786-0 > 100 µM | SF-268 45.6 µM | CCRF-CEM 33 µM | ACHN > 100 µM | A498 > 100 µM | SK-OV-3 > 100 µM | A549 > 100 µM | UACC-62 25.1 µM | UACC-257 33.7 µM | TK-10 > 100 µM | UO-31 > 100 µM | Malme-3M > 100 µM | OVCAR-3 23.4 µM

COc1ccc(/C=C2\C(=O)N(NC(C)=O)c3ccccc32)cc1
inactive: CAKI-1 43.5 µM | 786-0 > 100 µM | SF-268 80.4 µM | CCRF-CEM 49.7 µM | ACHN > 100 µM | A498 > 100 µM | SK-OV-3 > 100 µM | A549 58.9 µM | UACC-62 > 100 µM | UACC-257 > 100 µM | TK-10 46.5 µM | UO-31 37.4 µM | Malme-3M > 100 µM | OVCAR-3 56.4 µM

CC1(C)C(c2ccccc2)=NN(O)c2ccccc21
inactive: CAKI-1 > 100 µM | 786-0 > 100 µM | SF-268 > 100 µM | CCRF-CEM > 100 µM | A498 > 100 µM | SK-OV-3 > 100 µM | A549 > 100 µM | UACC-62 > 100 µM | UACC-257 > 100 µM | TK-10 > 100 µM | Malme-3M > 100 µM | HL-60 > 100 µM | OVCAR-3 > 100 µM
